Source: patent US20090018136A1, “METHODS AND COMPOSITIONS FOR THE TREATMENT OF VASCULAR DISEASE” (priority 2005, published 2009)
Where a name gives a salt, the structure may show the parent alone.

Key:
[1] = for hygroscopicity / water adsorbed (hygroscopicity): dihydrochloride; for water adsorbed (hygroscopicity): content to which the form adsorbs water
[2] = tested on: sickle cell transgenic (PS) mice; conditions: administration to sickle cell transgenic (PS) mice; cited from earlier work
beagles = conditions: dog, in vivo
Procedure: This study evaluated the cardiovascular effects of high doses of 6R-BH4 in combination with the PDE5 inhibitor sildenafil citrate in vivo. Eight male research nonnaïve and naïve purebred beagles were dosed in a double Latin square crossover design as described in the following table. All animals were dosed by oral gavage. Test articles were administered at a dose volume of 5 mL/kg (for a total volume of 10 mL/kg for the combination dose); control animals were dosed at a dose volume of 10 mL/kg. 6R-BH4 (sapropterin dihydrochloride) provided as 300 mg tablets (100 mg active 6R-BH4/tablet) stored at room temperature with desiccant.
At initiation of treatment, the animals were approximately 7 to 10 months old, and their body weights prior to dosing ranged from 7.8 to 12.0 kg.
At least 2 weeks prior to initiation of treatment, animals were fasted overnight, anesthetized, and an electrocardiogram (ECG) and blood pressure transmitter were implanted into the abdomen and sutured to the abdominal wall. The blood pressure catheter was placed in an artery and advanced to the abdominal aorta. Animals were checked twice daily (a.m. and p.m.) for mortality, abnormalities, and signs of pain and distress. Additional findings were recorded as observed.
Detailed observations were taken three times during the predose phase (including the day before dosing) and on Days 3 and 10 of the dosing phase. For each dosing day, ECG and pressure measurements were recorded for at least 90 minutes prior to dosing, continuously for at least 8 hours after dosing, and then for one period of at least 15 minutes in duration each hour through at least 24 hours postdose. Blood pressure measurements included systolic, diastolic, and mean arterial pressures and pulse pressure (systolic-diastolic). […]
Quantitative evaluation of ECG measurements, including RR interval, QT, and rate-corrected QT (QTc, using Fridericia's method), were done.
Positive inotropic effects (+dP/dtmax) and heart rate were calculated from a left ventricular pressure signal predose and approximately 2, 4, 8, 12, and 24 hours postdose. […]

hypertensive patients = assay: Study 2: dose-response of oral BH4 on blood pressure and heart rate, after 2-week vitamin C run-in; type: in vivo, human
Procedure: Prior studies have used parenteral infusion of BH4 or a single oral dose; thus it was not known whether long-term oral BH4 over a period of days to weeks would result in a sustained improvement in endothelial dysfunction. […] Two studies were conducted to investigate the duration of action of oral BH4 and the response of hypertensive subjects to different doses of BH4. […] Patients were continued on their current anti-hypertensive therapy which remained unchanged. […] BH4 powder was obtained from Schircks Laboratories (Jona, Switzerland). BH4 when administered with vitamin C was compounded with vitamin C at a ratio of 1 mg of vitamin C/1 mg BH4 into appropriate sized capsules. Subjects were advised to keep the pills in a freezer or refrigerator. For both study 1 and study 2, the primary end point after statistical analysis was a reduction of systolic, mean and diastolic BP during BH4 therapy. Secondary end points included improvement of endothelial function as FMD. Linear mixed effects models for repeated measures data were used to analyze change in BP from baseline to end of treatment period and differences in change between 100 mg and 200 mg dose groups. A quadratic term for week was included in the model to account for non-linear trends over the treatment period. Dose, week and week squared were the main effect terms in the model; dose by week and dose by week squared were the interaction terms in the model. Significant interaction terms indicate a difference in the pattern of change between the two dose groups. FMD data was analyzed using the two-tailed student t-test. […] Of the 20 subjects who qualified for participation, 4 were excluded during the run-in phase because of inability to return for follow-up appointments. There were 6 male subjects, mean age 59.5±8.3 years. Eight subjects received 200 mg b.i.d (twice daily) of oral BH4 and 8 received 100 mg b.i.d. of oral BH4. […] Because BH4 was compounded with vitamin C in a 1:1 ratio, all subjects received vitamin C, at their assigned BH4 dose, twice a day during the first 2-week period. After this 2-week run-in period, subjects received BH4 only at their assigned dosage for the next 4 weeks. Weekly heart rate and BP measurements were made during the run-in period and treatment period. Mean blood pressure was calculated as: (SBP+2×DBP)/3. BH4 was then stopped and follow-up was performed at 1 and 4 weeks after discontinuation where BP and heart rate measurements were made. Routine chemistries and LFT's were drawn prior to initiation of medication, at the end of BH4 therapy and one month after discontinuation of BH4.

For C[C@H](O)[C@H](O)[C@H]1CNc2nc(N)[nH]c(=O)c2N1.Cl.Cl [form C, (6R)-L-erythro-tetrahydrobiopterin dihydrochloride], the hygroscopicity [1] was “slightly hygroscopic”.
For C[C@H](O)[C@H](O)[C@H]1CNc2nc(N)[nH]c(=O)c2N1.Cl.Cl [form E, (6R)-L-erythro-tetrahydrobiopterin dihydrochloride], the hygroscopicity [1] was “non-hygroscopic”.
In the case of C[C@H](O)C(=O)C1=Nc2c(nc(N)[nH]c2=O)NC1 [sepiapterin], the blood cell adhesion [2] is given as “attenuation”.
With C[C@H](O)[C@H](O)[C@H]1CNc2nc(N)[nH]c(=O)c2N1.Cl.Cl [form K, (6R)-L-erythro-tetrahydrobiopterin dihydrochloride] the “water adsorbed (hygroscopicity)” value [1] was “about 2.0 percent by weight” and the hygroscopicity [1] was “slightly hygroscopic”.
With C[C@H](O)[C@H](O)[C@H]1CNc2nc(N)[nH]c(=O)c2N1.Cl.Cl [form B, (6R)-L-erythro-tetrahydrobiopterin dihydrochloride] the hygroscopicity [1] was “slightly hygroscopic”.
In the case of C[C@H](O)[C@H](O)[C@H]1CNc2nc(N)[nH]c(=O)c2N1.Cl.Cl [form F, (6R)-L-erythro-tetrahydrobiopterin dihydrochloride], the “water adsorbed (hygroscopicity)” value [1] is reported as “about 3 percent by weight” and the hygroscopicity [1] is reported as “slightly hygroscopic”.
For C[C@H](O)[C@H](O)[C@H]1CNc2nc(N)[nH]c(=O)c2N1.Cl.Cl [form D, (6R)-L-erythro-tetrahydrobiopterin dihydrochloride], the hygroscopicity [1] was “slightly hygroscopic”.
With C[C@H](O)[C@H](O)[C@H]1CNc2nc(N)[nH]c(=O)c2N1.Cl.Cl [form A, (6R)-L-erythro-tetrahydrobiopterin dihydrochloride] the “water adsorbed (hygroscopicity)” value [1] was “about 3 percent by weight”, the hygroscopicity [1] was “slightly hygroscopic” and the “phase equilibration test of suspensions” value ([1]; tetrahydrofuran five days or tertiary-butyl methyl ether 18 hours, under nitrogen at room temperature, then filtration and air-drying) was “unchanged”.
In the case of CCCc1nn(C)c2c(=O)[nH]c(-c3cc(S(=O)(=O)N4CCN(C)CC4)ccc3OCC)nc12 [sildenafil citrate], the Arterial pulse pressure (beagles) is reported as “significantly increased” and the Heart rate (beagles) is reported as “significantly increased”.
For O=C1O[C@H]([C@@H](O)CO)C(O)=C1O [vitamin C, ascorbic acid, reference compound], the “diastolic arterial BP” value (hypertensive patients; Study 2, 16 subjects, after 2 weeks of vitamin C run-in, 84±13 before, p=ns) was 86±11 mmHg, the “mean arterial BP” value (hypertensive patients; Study 2, 16 subjects, after 2 weeks of vitamin C run-in, 106±10 before, p=ns) was 106±12 mmHg and the “systolic arterial BP” value (hypertensive patients; Study 2, 16 subjects, after 2 weeks of vitamin C run-in, 152±11 before, p=ns) was 148±19 mmHg. The “change in heart rate or BP during the run-in phase” value (hypertensive patients; Study 2, vitamin C twice a day for 2 weeks, either group) was “no significant change”.
For C[C@H](O)[C@H](O)[C@H]1CNc2nc(N)[nH]c(=O)c2N1.Cl.Cl [form J, (6R)-L-erythro-tetrahydrobiopterin dihydrochloride], the hygroscopicity [1] was “slightly hygroscopic”.
